Experiments:
PPARδ [1] = target: T1, PPARδ (Homo sapiens, UniProt Q03181); assay: PPARδ transactivation reporter gene assay in SMMC-7721 cells; assay type: cell-based; details: SMMC-7721 cells
T1 construct: expressed in transfected cells; host or cells: SMMC-7721 or U2OS
T1 sequence (Q03181 1-441): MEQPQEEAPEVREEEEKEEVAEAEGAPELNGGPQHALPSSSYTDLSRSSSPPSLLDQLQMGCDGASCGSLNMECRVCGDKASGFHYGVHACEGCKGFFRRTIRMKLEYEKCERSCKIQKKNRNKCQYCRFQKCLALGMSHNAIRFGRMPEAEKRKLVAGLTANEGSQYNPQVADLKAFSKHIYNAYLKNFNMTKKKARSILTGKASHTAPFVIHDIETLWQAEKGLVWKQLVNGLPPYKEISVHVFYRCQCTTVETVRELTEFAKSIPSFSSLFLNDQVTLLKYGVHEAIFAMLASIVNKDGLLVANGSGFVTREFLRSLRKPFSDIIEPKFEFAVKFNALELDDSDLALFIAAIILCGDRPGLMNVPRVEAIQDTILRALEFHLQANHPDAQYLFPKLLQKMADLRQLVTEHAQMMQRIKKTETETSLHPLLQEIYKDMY
T1 sequence (P19793 1-462 partner): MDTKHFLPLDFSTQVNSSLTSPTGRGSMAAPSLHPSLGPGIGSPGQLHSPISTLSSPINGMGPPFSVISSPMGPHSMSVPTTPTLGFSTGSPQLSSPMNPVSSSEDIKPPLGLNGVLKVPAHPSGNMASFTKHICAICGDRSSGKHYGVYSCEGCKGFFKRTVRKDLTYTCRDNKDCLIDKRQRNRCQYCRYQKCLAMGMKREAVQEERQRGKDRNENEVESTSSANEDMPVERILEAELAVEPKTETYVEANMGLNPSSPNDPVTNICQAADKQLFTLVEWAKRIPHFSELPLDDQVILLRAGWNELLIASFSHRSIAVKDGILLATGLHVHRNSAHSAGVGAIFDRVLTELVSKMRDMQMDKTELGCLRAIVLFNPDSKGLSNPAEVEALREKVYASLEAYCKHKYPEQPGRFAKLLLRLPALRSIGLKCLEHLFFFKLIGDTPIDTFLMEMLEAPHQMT

PPARδ [2] = target: T1, PPARδ; assay: PPARδ transactivation reporter gene assay in U2OS cells; assay type: cell-based; details: U2OS cells
SMMC-7721 cells = assay: Gene expression by RT-PCR in SMMC-7721 cells; assay type: cell-based, human; details: 48 h, 10 μM rosiglitazone, 10 μM chiglitazar
From the text: (§1) cDNAs for human retinoid X receptor (hRXR), PPARα, PPARγ, and PPARδ were obtained by reverse transcriptase polymerase chain reaction (RT-PCR) from human liver or adipose tissues. Amplified cDNAs were cloned into pcDNA3.1 expression vector (Invitrogen, Carlsbad, CA, USA). The integrity and fidelity of all constructs made were verified by DNA sequencing. Luciferase reporter plasmids, ACOX promoter for PPARγ and pHD(X3)-luc for PPARα, were kind gifts of Drs. TM McIntyre (University of Utah, USA) and RA Rachubinski (University of Alberta, Canada), respectively. PPRE-luc for PPARδ was constructed based on the previous report by insertion of the annealed oligonucleotides having four copies of the CYP4A6 PPRE (4 × […]) into the upstream of the luciferase coding sequence in pGL3-promoter vector (Promega, Madison, WI, USA). pCMVβGal was purchased from Clontech (Palo Alto, CA, USA). The mouse 3T3-L1 preadipocyte cell line, skeletal muscle C2C12 cell line, and macrophage RAW267.4 cell line and the human osteosarcoma U2OS cell line were obtained from the American Type Culture Collection (ATCC, Rockville, MD, USA). The human hepatoma SMMC-7721 cell line was obtained from the Cell Culture Center of Chinese Academy of Medical Sciences (Beijing, China). Cell lines were cultured in medium of DMEM (3T3-L1, C2C12, and SMMC-7721), RPMI 1640 (RAW267.4), or McCoy's 5A (U2OS), containing 10% fetal bovine serum (FBS), 50 μg/mL streptomycin, and 50 units/mL penicillin at 37°C in a humidified incubator with 5% CO2.
(§2) Total RNA was extracted from cells or tissues with an RNeasy minikit (Qiagen, Valencia, CA, USA). The first-strand cDNA was synthesized using the oligo(dT) primers, followed by using SuperScript II reverse transcriptase (Invitrogen) according to the manufacturer's instructions. The PCR amplifications were performed in 10 μL of reaction mixture volume containing 0.8 μL of cDNA, 10 mM Tris-HCl (pH 8.3), 50 mM KCl, 1.5 mM MgCl2, 0.1% Triton X-100, 0.2 mM deoxynucleotide triphosphates, 0.4 μM primers, and 0.25 U of Taq polymerase (TaKaRa Biotechnology Co., Ltd, China). Taq DNA polymerase was added to each tube after a treatment of 2 min at 94°C. This was followed by 22–30 cycles of denaturation (23 s at 94°C), annealing (20 s at 55°C), extension (30 s at 72°C), and a final extension step of 2 min. PCR products were analyzed by electrophoresis on a 1.5% agarose gel stained with ethidium bromide.
(§3) Figure 1 In vitro regulation of gene expression by chiglitazar. (a) Endogenous expression of individual PPAR subtypes in cell lines. […]. The expression change of referred genes induced by different compounds was normalized against internal control (36B4 or GAPDH) and then compared with vehicle control treatment. The data shown are averaged from 3 independent experiments.

RAW267.4 cells = assay: Gene expression by RT-PCR in RAW267.4 cells; assay type: cell-based, mouse; details: 48 h, 10 μM chiglitazar
From the text: as §1, §2, §3

3T3-L1 cells = assay: Gene expression by RT-PCR in 3T3-L1 cells; assay type: cell-based, mouse; details: 48 h, 10 μM rosiglitazone, 10 μM chiglitazar, vs vehicle
From the text: as §1, with “The human hepatoma SMMC-7721 cell line was obtained from the Cell Culture Center of Chinese Academy of Medical Sciences (Beijing, China). Cell lines were cultured in medium of DMEM (3T3-L1, C2C12, and SMMC-7721), RPMI 1640 (RAW267.4), or McCoy's 5A (U2OS), containing 10% fetal bovine serum (FBS), 50 μg/mL streptomycin, and 50 units/mL penicillin at 37°C in a humidified incubator with 5% CO2.” left out
Total RNA was extracted from cells or tissues with an RNeasy minikit (Qiagen, Valencia, CA, USA). […] PCR products were analyzed by electrophoresis on a 1.5% agarose gel stained with ethidium bromide. […]

C2C12 cells = assay: Gene expression by RT-PCR in C2C12 cells; assay type: cell-based, mouse; details: 48 h, 10 μM chiglitazar, 50 μM WY14643, 5 μM 2-Bro, compared with rosiglitazone 10 μM
From the text: as §1
Total RNA was extracted from cells or tissues with an RNeasy minikit (Qiagen, Valencia, CA, USA). The first-strand cDNA was synthesized using the oligo(dT) primers, followed by using SuperScript II reverse transcriptase (Invitrogen) according to the manufacturer's instructions. […] PCR products were analyzed by electrophoresis on a 1.5% agarose gel stained with ethidium bromide. […]

Wistar obese rats = test system: Wistar obese rats; parameters: method as in PMID 16751799; details: Wistar obese rats treated for 9–40 days ref 18; cited from earlier work
[3] = 24 h treatment, luciferase reporter, hRXR cotransfected, ia: inactive at 10 μM, read-out: PPARδ EC50
[4] = max response compared with 2-Bro at 10 μM

For O=C(c1ccc(F)cc1)c1ccccc1NC(Cc1ccc(OCCn2c3ccccc3c3ccccc32)cc1)C(=O)O (centres unmarked) [Chi, 2-[(2-(4-fluorobenzoyl)phenyl)amino]-3-[4-(2-carbazolylethoxy)-phenyl]-propionic acid], which EC50 (PPARδ [1]; [3]) is on record?
Its EC50 is 1.7 ± 0.4 µM.

And the “PPARδ % Max” value (PPARδ [1]; [4])?
Its value is 123%.

What about the EC50 (PPARδ [2]; [3]) of the same compound?
Its EC50 is 1.5 ± 0.2 µM.

What about the “PPARδ % Max” value (PPARδ [2]; [4]) of the same compound?
Its value is 244%.

What about the “Expression of PPARγ downstream genes AOX, LIPC and HSL” value (SMMC-7721 cells; vs vehicle) of the same compound?
Its value is “upregulated”.

And the “Expression of LDL receptor (LDLR)” value (SMMC-7721 cells; 50 μM WY14643, 5 μM 2-Bro)?
Its value is “kept no change”.

And the “Expression of PPARα and/or PPARδ downstream gene SRA” value (RAW267.4 cells; 50 μM WY14643, 5 μM 2-Bro, compared with rosiglitazone 10 μM)?
The value was “more significantly upregulated”.

And the “Expression of PPARγ downstream gene CD36” value (RAW267.4 cells; 10 μM rosiglitazone, vs vehicle)?
The value was “upregulated”.

What about the “Expression of PPARγ downstream genes SREBP1 and adiponectin” value (3T3-L1 cells) of the same compound?
Its value is “upregulated”.

And the “Expression of PPARα and/or PPARδ downstream genes CPT-1a and CPT-1b” value (C2C12 cells)?
The value was “more significantly upregulated”.

What about the Optimal efficacy dose (Wistar obese rats) of the same compound?
The Optimal efficacy dose was 10 mg/kg.

Source: paper PMC3486420, “In Vitro and In Vivo Characterizations of Chiglitazar, a Newly Identified PPAR Pan-Agonist” (PPAR Research, 2012)
